Test results from US20260234129A1, “NOVEL IMIDAZOLE DERIVATIVE AND USE THEREOF” (PELEMED CO., LTD., priority 2023, published 2026).
Like-named read-outs stand apart in the source and are kept apart here.

Tested on: MV4-11 cells (FLT3-ITD-expressing AML cell line)
Assay: Cell proliferation inhibition, Alamar Blue
Format: cell-based, human
Settings: read-out: Cellular (GI50) MV4-11
Description: The cell proliferation inhibition experiment on acute myeloid leukemia (AML) cell lines was performed using FL3-ITD-expressing AML cell line MV4-11, BaF3-ITD-FLT3 F691L cell line, and BaF3-ITD-FLT3 D835Y cell line to test FLT3 inhibitory activity. All cell lines were human-derived cell lines, and the sources and culture conditions for each cell line are as follows.
Cell viability was assessed by a resazurin redox-based assay using the Alamar Blue Assay kit (Invitrogen, USA). Specifically, MV4-11, BaF3-ITD-FLT3-F691L, and BaF3-ITD-FLT3-D835Y cells were plated in 384-well plates at 8,000 cells in 45 μL of medium. As a negative control, dimethyl sulfoxide (DMSO) was added together with the compound. After three days (72 hours) of compound treatment, 5 μL of the Alamar Blue kit reagent was added to each well of the 384-well plates, followed by incubation at 37° C. for 2 hours in a humidified CO2 incubator. After incubation, fluorescence intensity (Flu) was measured at 544 nm and 590 nm using a SpectraMax iD3 Multi Mode Microplate Reader (Molecular Devices, ID3-STD).

[1] = Homo sapiens, MV4-11, 72 hours of compound treatment

SMILES | GI50 [1] [µM] | GI50 (72 hours of compound treatment) [µM]
CN1CCN(C(=O)c2ccc3[nH]nc(-c4nc5ccccc5[nH]4)c3c2)CC1 [Example 2, (3-(1H-benzo[d]imidazol-2-yl)-1H-indazol-5-yl)(4-methylpiperazin-1-yl)methanone] | 0.1 to 1 | –
O=C(c1ccc2[nH]nc(-c3nc4ccccc4[nH]3)c2c1)N1CCN(c2ccc(F)cc2)CC1 [Example 3, (3-(1H-benzo[d]imidazol-2-yl)-1H-indazol-5-yl)(4-(4-fluorophenyl)piperazin-1-yl)methanone] | > 1 | –
NC1CCN(CCNC(=O)c2ccc3[nH]nc(-c4nc5ccccc5[nH]4)c3c2)CC1 [Example 8, N-(2-(4-aminopiperidin-1-yl)ethyl)-3-(1H-benzo[d]imidazol-2-yl)-1H-indazole-5-carboxamide] | 0.01 to 0.1 | –
CN(C)CCCNC(=O)c1ccc2[nH]nc(-c3nc4cc(F)c(F)cc4[nH]3)c2c1 [Example 9, 3-(5,6-difluoro-1H-benzo[d]imidazol-2-yl)-N-(3-(dimethylamino)propyl)-1H-indazole-5-carboxamide] | 0.01 to 0.1 | –
CN(C)CCCNC(=O)c1ccc2[nH]nc(-c3nc4ccc(C#N)cc4[nH]3)c2c1 [Example 10, 3-(6-cyano-1H-benzo[d]imidazol-2-yl)-N-(3-(dimethylamino)propyl)-1H-indazole-5-carboxamide] | 0.1 to 1 | –
C[C@@H]1CN(c2ccc3nc(-c4n[nH]c5ccc(C(=O)NCCCN)cc45)[nH]c3c2)C[C@H](C)N1 [Example 19, N-(3-aminopropyl)-3-(6-((3S,5R)-3,5-dimethylpiperazin-1-yl)-1H-benzo[d]imidazol-2-yl)-1H-indazole-5-carboxamide] | 0.1 to 1 | –
CN(C)CCOc1ccc2nc(-c3n[nH]c4ccc(C(=O)NCCCN)cc34)[nH]c2c1 [Example 24, N-(3-aminopropyl)-3-(6-(2-(dimethylamino)ethoxy)-1H-benzo[d]imidazol-2-yl)-1H-indazole-5-carboxamide] | 0.1 to 1 | –
NCCCNC(=O)c1ccc2[nH]nc(-c3nc4cccc(F)c4[nH]3)c2c1 [Example 25, N-(3-aminopropyl)-3-(7-fluoro-1H-benzo[d]imidazol-2-yl)-1H-indazole-5-carboxamide] | 0.01 to 0.1 | –
NCCCNC(=O)c1ccc2[nH]nc(-c3nc4ccc(Cl)cc4[nH]3)c2c1 [Example 27, N-(3-aminopropyl)-3-(6-chloro-1H-benzo[d]imidazol-2-yl)-1H-indazole-5-carboxamide] | 0.01 to 0.1 | –
NCCCNC(=O)c1ccc2[nH]nc(-c3nc4ccc(Br)cc4[nH]3)c2c1 [Example 28, N-(3-aminopropyl)-3-(6-bromo-1H-benzo[d]imidazol-2-yl)-1H-indazole-5-carboxamide] | 0.01 to 0.1 | –
CC(=O)NCCCNC(=O)c1ccc2[nH]nc(-c3nc4ccc(N5CCCCC5)cc4[nH]3)c2c1 [Example 33, N-(3-acetamidopropyl)-3-(6-(piperidin-1-yl)-1H-benzo[d]imidazol-2-yl)-1H-indazole-5-carboxamide] | < 0.01 | –
CN1CCN(C2CCN(C(=O)c3ccc4[nH]nc(-c5nc6ccc(F)cc6[nH]5)c4c3)CC2)CC1 [Example 34, (3-(6-fluoro-1H-benzo[d]imidazol-2-yl)-1H-indazol-5-yl)(4-(4-methylpiperazin-1-yl)piperidin-1-yl)methanone] | > 1 | –
CN(C)CCNC(=O)c1ccc2[nH]nc(-c3nc4ccc(F)cc4[nH]3)c2c1 [Example 35, N-(2-(dimethylamino)ethyl)-3-(6-fluoro-1H-benzo[d]imidazol-2-yl)-1H-indazole-5-carboxamide] | 0.01 to 0.1 | –
CN(C)CCCNC(=O)c1ccc2[nH]nc(-c3nc4ccc(F)cc4[nH]3)c2c1 [Example 36, N-(3-(dimethylamino)propyl)-3-(6-fluoro-1H-benzo[d]imidazol-2-yl)-1H-indazole-5-carboxamide] | 0.01 to 0.1 | –
NCCNC(=O)c1ccc2[nH]nc(-c3nc4ccc(F)cc4[nH]3)c2c1 [Example 37, N-(2-aminoethyl)-3-(6-fluoro-1H-benzo[d]imidazol-2-yl)-1H-indazole-5-carboxamide] | 0.01 to 0.1 | –
NCCCCNC(=O)c1ccc2[nH]nc(-c3nc4ccc(F)cc4[nH]3)c2c1 [Example 39, N-(4-aminobutyl)-3-(6-fluoro-1H-benzo[d]imidazol-2-yl)-1H-indazole-5-carboxamide] | 0.1 to 1 | –
O=C(NC1CCNCC1)c1ccc2[nH]nc(-c3nc4ccc(F)cc4[nH]3)c2c1 [Example 40, 3-(6-fluoro-1H-benzo[d]imidazol-2-yl)-N-(piperidin-4-yl)-1H-indazole-5-carboxamide] | 0.01 to 0.1 | –

SMILES | GI50 [1] [µM] | GI50 (72 hours of compound treatment) [µM]
O=C(N[C@@H]1CCCNC1)c1ccc2[nH]nc(-c3nc4ccc(F)cc4[nH]3)c2c1 [Example 41, (R)-3-(6-fluoro-1H-benzo[d]imidazol-2-yl)-N-(piperidin-3-yl)-1H-indazole-5-carboxamide] | > 1 | –
CC(=O)N1CC2(C1)CN(C(=O)c1ccc3[nH]nc(-c4nc5ccc(N6CCOCC6)cc5[nH]4)c3c1)C2 [Example 60, 1-(6-(3-(6-morpholino-1H-benzo[d]imidazol-2-yl)-1H-indazole-5-carbonyl)-2,6-diazaspiro[3.3]heptan-2-yl)ethan-1-one] | > 1 | –
CC(=O)N1CC(CNC(=O)c2ccc3[nH]nc(-c4nc5ccc(N6CCOCC6)cc5[nH]4)c3c2)C1 [Example 61, N-((1-acetylazetidin-3-yl)methyl)-3-(6-morpholino-1H-benzo[d]imidazol-2-yl)-1H-indazole-5-carboxamide] | > 1 | –
CN(C)CCNC(=O)c1ccc2[nH]nc(-c3nc4ccc(N5CCOCC5)cc4[nH]3)c2c1 [Example 62, N-(2-(dimethylamino)ethyl)-3-(6-morpholino-1H-benzo[d]imidazol-2-yl)-1H-indazole-5-carboxamide] | < 0.01 | –
O=C(c1ccc2[nH]nc(-c3nc4ccc(N5CCOCC5)cc4[nH]3)c2c1)N1C[C@H]2C[C@@H]1CN2 [Example 65, ((1R,4R)-2,5-diazabicyclo[2.2.1]heptan-2-yl)(3-(6-morpholino-1H-benzo[d]imidazol-2-yl)-1H-indazol-5-yl)methanone] | 0.01 to 0.1 | –
O=C(c1ccc2[nH]nc(-c3nc4ccc(N5CCOCC5)cc4[nH]3)c2c1)N1C[C@@H]2C[C@H]1CN2 [Example 66, ((1S,4S)-2,5-diazabicyclo[2.2.1]heptan-2-yl)(3-(6-morpholino-1H-benzo[d]imidazol-2-yl)-1H-indazol-5-yl)methanone] | 0.01 to 0.1 | –
CNC1CCN(C(=O)c2ccc3[nH]nc(-c4nc5ccc(N6CCOCC6)cc5[nH]4)c3c2)CC1 [Example 70, (4-(methylamino)piperidin-1-yl)(3-(6-morpholino-1H-benzo[d]imidazol-2-yl)-1H-indazol-5-yl)methanone] | 0.01 to 0.1 | –
O=C(N[C@@H]1[C@@H]2CNC[C@@H]21)c1ccc2[nH]nc(-c3nc4ccc(N5CCOCC5)cc4[nH]3)c2c1 [Example 71, N-((1R,5S,6r)-3-azabicyclo[3.1.0]hexan-6-yl)-3-(6-morpholino-1H-benzo[d]imidazol-2-yl)-1H-indazole-5-carboxamide] | – | 0.01 to 0.1
Nc1ccc(NC(=O)c2ccc3[nH]nc(-c4nc5ccc(N6CCOCC6)cc5[nH]4)c3c2)cc1 [Example 72, N-(4-aminophenyl)-3-(6-morpholino-1H-benzo[d]imidazol-2-yl)-1H-indazole-5-carboxamide] | 0.01 to 0.1 | –
NCCCNC(=O)c1ccc2[nH]nc(-c3ncc(-c4ccc(F)cc4)[nH]3)c2c1 [Example 81, N-(3-aminopropyl)-3-(5-(4-fluorophenyl)-1H-imidazol-2-yl)-1H-indazole-5-carboxamide] | 0.01 to 0.1 | –
NCCCNC(=O)c1ccc2[nH]nc(-c3ncc(-c4cccc(F)c4)[nH]3)c2c1 [Example 82, N-(3-aminopropyl)-3-(5-(3-fluorophenyl)-1H-imidazol-2-yl)-1H-indazole-5-carboxamide] | 0.01 to 0.1 | –
NCCCNC(=O)c1ccc2[nH]nc(-c3ncc(-c4ccccc4F)[nH]3)c2c1 [Example 83, N-(3-aminopropyl)-3-(5-(2-fluorophenyl)-1H-imidazol-2-yl)-1H-indazole-5-carboxamide] | 0.01 to 0.1 | –
NCCCNC(=O)c1ccc2[nH]nc(-c3ncc(-c4ccc(Cl)c(F)c4)[nH]3)c2c1 [Example 85, N-(3-aminopropyl)-3-(5-(4-chloro-3-fluorophenyl)-1H-imidazol-2-yl)-1H-indazole-5-carboxamide] | 0.01 to 0.1 | –
NCCCNC(=O)c1ccc2[nH]nc(-c3ncc(-c4ccc(C(F)(F)F)cc4)[nH]3)c2c1 [Example 86, N-(3-aminopropyl)-3-(5-(4-(trifluoromethyl)phenyl)-1H-imidazol-2-yl)-1H-indazole-5-carboxamide] | 0.01 to 0.1 | –
COc1c(Cl)cc(Cl)cc1-c1cnc(-c2n[nH]c3ccc(C(=O)NCCCN)cc23)[nH]1 [Example 87, N-(3-aminopropyl)-3-(5-(3,5-dichloro-2-methoxyphenyl)-1H-imidazol-2-yl)-1H-indazole-5-carboxamide] | 0.01 to 0.1 | –
COc1cccc(-c2cnc(-c3n[nH]c4ccc(C(=O)NCCCN)cc34)[nH]2)c1 [Example 88, N-(3-aminopropyl)-3-(5-(3-methoxyphenyl)-1H-imidazol-2-yl)-1H-indazole-5-carboxamide] | 0.01 to 0.1 | –
NCCCNC(=O)c1ccc2[nH]nc(-c3ncc(-c4cccc([N+](=O)[O-])c4)[nH]3)c2c1 [Example 89, N-(3-aminopropyl)-3-(5-(3-nitrophenyl)-1H-imidazol-2-yl)-1H-indazole-5-carboxamide] | 0.1 to 1 | –
